Consider three molecules from US20050170391A1, “TAUT1 transporters expressed in blood brain barrier cells” (Xenoport, Inc., priority 2004, published 2005).

In one data set the target is PgP (Homo sapiens, UniProt P08183). Put plainly: Cellular transwell monolayer efflux assay, MDCK cells with TREx-PgP. As for the experimental part: A third type of efflux transporter assay is the cellular transwell monolayer efflux assay. In this assay, cells expressing efflux transporters, such as MDCK cells containing the TREx-PgP expression vector (Invitrogen Inc., Carlsbad, Calif.), are seeded and grown in transwell dishes on filter membranes made of substances such as polycarbonate. The cells form a polarized monolayer. The transwell dishes have apical and basolateral chambers that are separated by the filter membrane on which the polarized monolayer is situated. Assays are performed by placing a test compound in either the apical or basolateral chamber, followed by sampling the opposite chamber after a predetermined period of time such as 60-120 minutes and measuring the amount of the test compound. The test compound can be measured by methods such as radiolabel detection or LC-MS-MS analysis. Assays are performed in the presence and absence of an efflux transporter inhibitor or competitor. Efflux transporter inhibitors or competitors increase apical to basolateral transport and decrease basolateral to apical transport of compounds that are efflux transporter substrates. Apparent permeability (Papp) of test compounds is measured. […] Test compounds that generate ratios between 1.5 and 2.0 require additional testing to determine if they are efflux transporter substrates. An agent, conjugate, or conjugate moiety that is a TAUT1 substrate and also generates a ratio of greater than 2.0 can be modified.
MDCK cells transfected with the tetracycline-inducible TREx-PgP expression vector were seeded on polycarbonate filter membranes in transwell dishes and grown for 3-5 days, yielding a polarized monolayer with tight junctions between cells. […] The left set of bars depicts apical to basolateral transport, while the right set of bars depicts basolateral to apical transport.

For data set [1], the target named is T1, TAUT1 (Homo sapiens, UniProt P31641).
T1 sequence (P31641 1-620): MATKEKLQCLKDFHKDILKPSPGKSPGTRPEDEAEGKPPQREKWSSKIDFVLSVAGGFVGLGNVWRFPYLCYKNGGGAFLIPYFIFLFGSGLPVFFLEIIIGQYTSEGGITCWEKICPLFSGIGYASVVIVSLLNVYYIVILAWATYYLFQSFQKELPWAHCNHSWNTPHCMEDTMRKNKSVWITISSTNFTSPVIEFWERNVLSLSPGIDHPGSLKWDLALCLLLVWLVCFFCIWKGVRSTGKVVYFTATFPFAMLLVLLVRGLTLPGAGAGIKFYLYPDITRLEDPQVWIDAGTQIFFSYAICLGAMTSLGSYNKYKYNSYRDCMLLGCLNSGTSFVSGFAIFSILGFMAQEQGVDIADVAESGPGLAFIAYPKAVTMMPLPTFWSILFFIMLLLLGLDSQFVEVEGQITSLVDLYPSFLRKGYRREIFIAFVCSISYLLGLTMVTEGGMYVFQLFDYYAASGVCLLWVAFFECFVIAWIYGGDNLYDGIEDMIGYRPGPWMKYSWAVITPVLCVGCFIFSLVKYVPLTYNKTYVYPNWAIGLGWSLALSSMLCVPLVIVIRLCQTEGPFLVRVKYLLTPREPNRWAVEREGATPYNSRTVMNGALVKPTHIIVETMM
The data set is described as follows: hTAUT1 competition uptake assay in HEK-TREx-TAUT1 cells. The data set is classed as cell-based. Also on record: expressed in transfected cells; host or cells: HEK-TREx cells (HEK-TREx-TAUT1 inducible line). Here is the method: A modified competition uptake assay was developed to determine the ability of a test compound(s) to inhibit the uptake of radiolabeled substrates into HEK-TREx-TAUT1 cells induced to over-express hTAUT. The results are stated as affinities (IC50).
The competition uptake assay were prepared as follows: Compounds were prepared for assay by diluting a 100 mM stock concentration (in DMSO) to the appropriate working concentration. Typically, seven-point dose response curves were prepared starting at a final assay concentration of 1 mM and carrying out three-fold dilutions. These dilutions were prepared by making a working “compound” plate that contained a 2× solution of the desired starting concentration of each test compound in duplicate in row A of a v-bottom microtiter plate. Six 3-fold serial dilutions (from row B to G) were made into the HBSS assay buffer (9.8 g/L Hank's Balance Salts (Sigma; H-1387), 2.6 g/L HEPES (10 mM) (Sigma; H-3375), 0.35 g/L NaHCO3 (4.2 mM) (Sigma; S-6297), pH to 7.4 with 5N NaOH) (with the appropriate amount of DMSO so that the DMSO concentration remains constant at all dilutions). The resulting “compound” plate contained serial dilutions of six compounds in duplicate.
^3H-GABA was diluted into HBSS buffer to a final concentration of 4,000 cpm/μl. Enough solution was prepared to allow addition of 25 μl/well (the final concentration was 100,000 cpm/well).
HEK-TREx-hTAUT cells, plated in 96-well plates and treated with tetracycline (or tet analog (e.g., doxycycline), were removed from the incubator. Growth media was removed from the cells, and the cells were washed twice in room temperature HBSS (100 μl/well/wash) using a 96-well plate washer (Bio Tek ELX405). Alternatively, cells were washed manually with equivalent volumes using a multichannel pipettor. Immediately before beginning the assay, the final 100 μl wash solution was removed from the cells by aspiration.
Using a 96-well pipettor, 25 μl from the “compound” plate was added to each well of the cell plate. The assay was started by adding 25 μl of the ^3H-GABA working solution. The plate was incubated at room temperature for 15 minutes. The assay was stopped by washing the cells four times with ice-cold HBSS buffer using a ELX 405 plate washer (100 μl buffer/well/wash) having an angled buffer dispenser.
Scintillation fluid (200 μl) (Optiphase Supermix (Perkin Elmer) was added to each well, and the plate was covered with a 96-well adhesive plate cover and placed on a shaker for 10 minutes. The plates were counted on a 96-well plate scintillation counter for 60 sec/well. The data were analyzed using a sigmoidal dose response curve-fitting program ((Prism, GraphPad, Inc, San Diego, Calif.; equation: one-site competition).
FIG. 7 depicts the results of a competition experiment using HEK-TREx-TAUT1 cells. ^3H-taurine was used as the substrate and unlabeled taurine was used as the competitor. The competition experiment was performed as described in Example 7. Non-specific uptake was determined by measuring the uptake into cells not induced to express the transporter (“no tet”). […] In control cells, uptake of labeled taurine remained at background levels and was largely unaffected by an excess of unlabeled taurine.
These four compounds, IAA, R,S-Baclofen, GPA, and GABA, were tested in both competition and direct uptake assays. One notable difference in the competition assay format compared to the literature is that ^3H-GABA was used, rather than ^3H-taurine, as the radiolabel. […] Therefore, to develop a competition assay that is as sensitive as possible, ^3H-GABA, a substrate with a much […] affinity, was used.

For data set [2], the target named is T1, TAUT1. Put plainly: ^3H-taurine uptake by Xenopus oocytes injected with TAUT1 cRNA. The data set is classed as cell-based. More on the design: expressed in transfected cells; host or cells: Xenopus oocytes injected with TAUT1 cRNA. To be noted: oocytes expressing TAUT1 vs noninjected controls (FIG. 2).
The target in data set [3] is T1, TAUT1. The following applies: reported value, source not given; cited from earlier work.
Substrate in data set [4]: NCCCC(=O)O
The data set is described as follows: cells, lysate or membranes. The following applies: other: direct uptake into HEK-TREx-TAUT1 cells, +TET minus no TET; 15 min, room temperature.

Setting [5] is: 2.5 nM ^3H-vinblastine, in the presence of 250 μM verapamil vs absence (FIG. 6).

“And” between values parts separate entries of the source, which are not always exact repeats. Identical values can stand only once. Some results are limits rather than exact numbers.

Chain of PgP (P08183 whole entry): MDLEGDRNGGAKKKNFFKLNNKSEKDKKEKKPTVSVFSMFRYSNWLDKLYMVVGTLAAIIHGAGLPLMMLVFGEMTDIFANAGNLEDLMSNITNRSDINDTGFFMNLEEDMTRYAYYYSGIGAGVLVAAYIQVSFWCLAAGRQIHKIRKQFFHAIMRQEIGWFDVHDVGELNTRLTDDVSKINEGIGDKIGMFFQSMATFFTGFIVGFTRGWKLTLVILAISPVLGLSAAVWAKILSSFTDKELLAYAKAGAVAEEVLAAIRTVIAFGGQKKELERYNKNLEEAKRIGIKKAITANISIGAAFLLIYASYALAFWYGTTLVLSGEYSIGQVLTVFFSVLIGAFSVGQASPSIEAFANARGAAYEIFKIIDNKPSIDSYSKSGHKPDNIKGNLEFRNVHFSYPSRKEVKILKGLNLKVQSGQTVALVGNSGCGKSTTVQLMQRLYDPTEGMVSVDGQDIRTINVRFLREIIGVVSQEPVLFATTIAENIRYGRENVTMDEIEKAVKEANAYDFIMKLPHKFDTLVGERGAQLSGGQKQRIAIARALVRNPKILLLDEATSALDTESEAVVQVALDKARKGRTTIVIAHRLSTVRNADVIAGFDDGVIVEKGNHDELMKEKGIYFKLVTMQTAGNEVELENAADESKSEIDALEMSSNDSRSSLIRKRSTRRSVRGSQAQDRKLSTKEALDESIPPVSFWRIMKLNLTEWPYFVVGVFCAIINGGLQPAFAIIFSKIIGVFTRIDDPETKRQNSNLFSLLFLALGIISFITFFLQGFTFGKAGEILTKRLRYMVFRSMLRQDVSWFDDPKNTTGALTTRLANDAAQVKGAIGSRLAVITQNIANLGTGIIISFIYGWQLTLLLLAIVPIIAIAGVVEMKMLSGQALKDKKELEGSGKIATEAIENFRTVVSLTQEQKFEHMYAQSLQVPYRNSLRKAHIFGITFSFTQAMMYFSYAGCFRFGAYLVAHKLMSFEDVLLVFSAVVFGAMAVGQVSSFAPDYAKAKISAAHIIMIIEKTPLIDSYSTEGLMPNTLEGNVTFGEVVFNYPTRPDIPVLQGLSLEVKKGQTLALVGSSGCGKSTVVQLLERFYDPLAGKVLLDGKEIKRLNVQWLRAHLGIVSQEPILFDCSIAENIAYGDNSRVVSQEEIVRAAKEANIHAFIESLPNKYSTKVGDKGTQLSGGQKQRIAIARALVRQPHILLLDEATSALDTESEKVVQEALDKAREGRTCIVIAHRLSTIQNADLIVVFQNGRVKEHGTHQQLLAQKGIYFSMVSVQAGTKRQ

As to `CC[C@]1(O)C[C@@H]2CN(CCc3c([nH]c4ccccc34)[C@@](C(=O)OC)(c3cc4c(cc3OC)N(C)[C@H]3[C@@](O)(C(=O)OC)[C@H](OC(C)=O)[C@]5(CC)C=CCN6CC[C@]43[C@@H]65)C2)C1` [^3H-vinblastine], on PgP (setting [5]), the “Apical to basolateral transport” value was “strongly increased” and the “basolateral to apical transport” value is on record as “strongly decreased”. Moreover, the PgP substrate status result at PgP (conclusion from transwell transport with and without verapamil) is listed as “substrate of PgP”.

In general, IC50 refers to the concentration that gives 50% inhibition. `NCCS(=O)(=O)O` [Taurine]: the IC50 on TAUT1 [1] (HEK-TREx-TAUT1 cells induced with tetracycline, ^3H-GABA radiolabel (taurine: ^3H-taurine per Example 9), 15 min, room temperature) is 10 µM. In addition, the radiolabel uptake at TAUT1 [1] (^3H-taurine as radiolabel in HEK-TREx-TAUT1 cells, in a very short time) is recorded as > 25 % of the input cpm. For the same molecule, the “uptake of labeled taurine with increasing unlabeled taurine” value on TAUT1 [1] (^3H-taurine substrate, unlabeled taurine competitor, cells induced to express TAUT1 (FIG. 7)) is on record as “the uptake of labeled taurine decreased as the concentration of unlabeled taurine increased”. For the same molecule, the “^3H-taurine uptake” value at TAUT1 [2] is recorded as “higher levels of ^3H-taurine uptake than noninjected controls”. In addition, at TAUT1 [3], the “Reported Affinity for TAUT1” value is 0.1 mM.

B1: hTAUT1 (Homo sapiens) (protein)
chain: MATKEKLQCLKDFHKDILKPSPGKSPGTRPEDEAEGKPPQREKWSSKIDFVLSVAGGFVGLGNVWRFPYLCYKNGGGAFLIPYFIFLFGSGLPVFFLEIIIGQYTSEGGITCWEKICPLFSGIGYASVVIVSLLNVYYIVILAWATYYLFQSFQKELPWAHCNHSWNTPHCMEDTMRKNKSVWITISSTNFTSPVIEFWERNVLSLSPGIDHPGSLKWDLALCLLLVWLVCFFCIWKGVRSTGKVVYFTATFPFAMLLVLLVRGLTLPGAGAGIKFYLYPDITRLEDPQVWIDAGTQIFFSYAICLGAMTSLGSYNKYKYNSYRDCMLLGCLNSGTSFVSGFAIFSILGFMAQEQGVDIADVAESGPGLAFIAYPKAVTMMPLPTFWSILFFIMLLLLGLDSQFVEVEGQITSLVDLYPSFLRKGYRREIFIAFVCSISYLLGLTMVTEGGMYVFQLFDYYAASGVCLLWVAFFECFVIAWIYGGDNLYDGIEDMIGYRPGPWMKYSWAVITPVLCVGCFIFSLVKYVPLTYNKTYVYPNWAIGLGWSLALSSMLCVPLVIVIRLCQTEGPFLVRVKYLLTPREPNRWAVEREGATPYNSRTVMNGALVKPTHIIVETMM
One may read the Km as the concentration of substrate that gives half-maximal velocity. For the molecule B1, in data set [4], the Km was 270 µM and 200 µM.
